The values that follow come from PubChem BioAssay (NCI).

Among the test systems are DLD-1 colon; DMS 114 small cell lung; DMS 273 small cell lung; HOP-18 NSCLC; KM20L2 colon; XF 498 CNS; MDA-N; RXF-631 renal; SNB-78 CNS; SN12K1 renal.
Holding throughout (experiment): NCI-60 cell line screen, 48 h

“And” between values parts separate entries of the source, which are not always exact repeats. Identical values can stand only once.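 Method: 48-hour compound exposure of cells in 96-well plates, five concentrations, linear interpolation of endpoints. GI50 = concentration required for 50% inhibition of growth. TGI is the concentration that stops growth completely.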

As to `COC(c1cccc(C(O)(C(F)(F)F)C(F)(F)F)c1)(C(F)(F)F)C(F)(F)F`, the TGI in the experiment with DLD-1 colon is 34.6 µM; with DMS 114 small cell lung, 32.6 µM; with DMS 273 small cell lung it was 34.8 µM; with HOP-18 NSCLC, 32.1 µM; in the experiment on KM20L2 colon, 31.2 µM; with XF 498 CNS, 28.2 µM.
Turning to `Cc1nc(-c2ccccc2)c(Cc2ccccc2O)c(=O)[nH]1`, the TGI in the experiment with MDA-N was greater than 100 µM.
Still for that read-out and setting: with `O=[N+]([O-])c1ccccc1N=Nc1c(O)[nH]c2ccc(Br)cc12` the figure was greater than 60.5 µM.
As for `O=C(C=Nc1ccccc1C(=O)[O-])c1cccs1.O=C(C=Nc1ccccc1C(=O)[O-])c1cccs1.[Co+2]`, the TGI in the experiment with DLD-1 colon, with HOP-18 NSCLC and with KM20L2 colon was greater than 100 µM throughout.
In the experiment with MDA-N, `C=C(C)C1Cc2c(cc(OC)c3c(=O)c4cccc(O)c4oc23)O1` (stereo not given) came in with a TGI of 53.1 µM.
For `O=C(O)C1=CCCc2ccc3ccccc3c21`, the TGI in the experiment on DMS 114 small cell lung, in the experiment with DMS 273 small cell lung, with HOP-18 NSCLC, in the experiment with KM20L2 colon, with RXF-631 renal and with SNB-78 CNS was greater than 100 µM in each case. For the same compound, the TGI in the experiment on XF 498 CNS was greater than 100 µM.
Turning to `CCN(CC)CCCn1cnc2ncccc2c1=O`, the TGI in the experiment with DLD-1 colon, in the experiment on DMS 114 small cell lung, in the experiment on DMS 273 small cell lung and with SNB-78 CNS was greater than 100 µM each time.
Take `CCOC(=O)/C(=N\OC)C(O)C(F)(F)F` (stereo not given): the TGI in the experiment with MDA-N is greater than 100 µM.
Consider `CC(=O)Oc1cc(C)c2c(c1OC(C)=O)CC1(O2)[C@@H](C)CCC2[C@@]3(C)CC[C@H](OC(C)=O)C(C)(C)C3CC[C@]21C` (stereo not given in full), for which the TGI is 15.1 µM with DLD-1 colon; 4.49 µM in the experiment with DMS 114 small cell lung; 4.46 µM in the experiment with DMS 273 small cell lung; 6.81 µM in the experiment on HOP-18 NSCLC; 28.3 µM in the experiment on KM20L2 colon; 19.9 µM in the experiment on RXF-631 renal. Besides, the TGI in the experiment on SNB-78 CNS came to 4.64 µM.
In the case of `C/C(=N\NC(N)=S)c1cc(C)c(C)cc1C`, the TGI is greater than 100 µM in the experiment with DLD-1 colon; 42.3 µM in the experiment on DMS 114 small cell lung; greater than 100 µM in the experiment with DMS 273 small cell lung; greater than 100 µM in the experiment on HOP-18 NSCLC; greater than 100 µM with KM20L2 colon; greater than 100 µM with RXF-631 renal. For the same compound, the TGI in the experiment on SNB-78 CNS is greater than 100 µM; in the experiment with XF 498 CNS, 50.3 µM.
Take `Nc1nc(N)c(Cn2ccnc2)c(=O)[nH]1`: in the experiment on MDA-N, the TGI was greater than 100 µM.
`O=C(CCC(=O)Nc1cccc(Cl)c1)CC(=O)c1ccc(F)cc1`: the TGI in the experiment on DLD-1 colon, with DMS 273 small cell lung, in the experiment on KM20L2 colon, in the experiment on SNB-78 CNS and with XF 498 CNS was greater than 100 µM throughout.
With `[Cl][Sn]([Cl])([c]1ccccc1)[c]1ccccc1`, the GI50 in the experiment on DLD-1 colon is 4.51 µM; in the experiment with DMS 114 small cell lung, 2.67 µM; in the experiment on HOP-18 NSCLC, 17.9 µM; in the experiment on KM20L2 colon it was 14.8 µM; in the experiment with SNB-78 CNS, 9.33 µM; in the experiment with XF 498 CNS, 2.58 µM. Also, the TGI was 17.5 µM with DLD-1 colon; greater than 100 µM with DMS 114 small cell lung; 31.8 µM in the experiment with HOP-18 NSCLC; 28 µM in the experiment on KM20L2 colon; 56.7 µM in the experiment with SNB-78 CNS; 6.21 µM in the experiment on XF 498 CNS.
On to `CSc1cccc(-n2c3nc(=O)n(C)c(=O)c-3nc3ccccc32)c1`, for which the TGI in the experiment on DLD-1 colon amounted to 32.6 µM; in the experiment on DMS 114 small cell lung it was 14.9 µM; in the experiment with DMS 273 small cell lung it was 13.2 µM; with HOP-18 NSCLC, 26.2 µM; in the experiment on KM20L2 colon, 15.4 µM; with SNB-78 CNS it was 43.7 µM. This compound also showed a TGI in the experiment on XF 498 CNS of 13.4 µM.
With `CCCCCCCC(=O)NCC(O)CNC(=O)CCCCCCC`, the TGI in the experiment on DLD-1 colon, with DMS 114 small cell lung, in the experiment on DMS 273 small cell lung, in the experiment on HOP-18 NSCLC, in the experiment with KM20L2 colon and in the experiment on SNB-78 CNS was greater than 100 µM in each case. The same compound displayed a TGI with XF 498 CNS greater than 100 µM.
Consider `CCOC(=O)c1c(-c2ccccc2)oc(-c2ccccc2)c1C(=O)OCC`, for which the TGI with DLD-1 colon, in the experiment with DMS 114 small cell lung, in the experiment on DMS 273 small cell lung, in the experiment on HOP-18 NSCLC, with KM20L2 colon and in the experiment with SNB-78 CNS was greater than 100 µM throughout. The compound also yielded a TGI with XF 498 CNS greater than 100 µM.
In the experiment on MDA-N, `CCC1C(=O)OCc2c1cc1n(c2=O)Cc2cc3ccccc3nc2-1` (stereo not given) registered a TGI greater than 100 µM.
On to `Cc1oc2c(C)c3oc(=O)cc(C)c3cc2c1CNC(=O)[C@@H]1OCCOCCOCCOCCOCCOC1C(=O)O` (stereo not given in full), for which the TGI with DLD-1 colon, with DMS 114 small cell lung, in the experiment on DMS 273 small cell lung, in the experiment on HOP-18 NSCLC, with KM20L2 colon and in the experiment with RXF-631 renal was greater than 100 µM throughout. In the experiment on SNB-78 CNS, the TGI is greater than 100 µM.
For `CCC[CH2][Sn]([CH2]CCC)([O]C(=O)c1cc(F)ccc1F)[O][Sn]([CH2]CCC)([CH2]CCC)[O]C(=O)c1cc(F)ccc1F`, the GI50 was 0.206 µM in the experiment on DLD-1 colon; 0.0832 µM in the experiment on DMS 114 small cell lung; 0.331 µM with DMS 273 small cell lung; 0.654 µM with HOP-18 NSCLC; 0.779 µM with KM20L2 colon; 0.239 µM in the experiment on MDA-N. Further, the GI50 is 0.222 µM with SNB-78 CNS and 0.16 µM with XF 498 CNS. Also, the TGI in the experiment on DLD-1 colon stood at 0.974 µM; with DMS 114 small cell lung it was 0.25 µM; in the experiment with DMS 273 small cell lung it was 1.56 µM; with HOP-18 NSCLC it was 1.67 µM; in the experiment with KM20L2 colon, 2.11 µM; in the experiment with MDA-N it was 1.46 µM. For the same compound, the TGI in the experiment with SNB-78 CNS is 1.59 µM; in the experiment with XF 498 CNS, 0.305 µM.
`CC1(Cl)CC2OC3(Br)C=CC(C)(O)C2(CC1Br)C3(C)C` (stereo not given): the TGI in the experiment with DLD-1 colon, in the experiment with DMS 114 small cell lung, in the experiment on DMS 273 small cell lung, with HOP-18 NSCLC, in the experiment with KM20L2 colon and with SNB-78 CNS was greater than 100 µM each time.
Consider `S=C(N/N=C(/c1ccccc1)c1ccccn1)N1CCCCC1`, for which, in the experiment with MDA-N, the GI50 is 0.118 µM; the TGI was 2.26 µM and 2.62 µM.
`COc1ccc2c(c1O)C13CCN(C)C(C2)C1CCC1(C3)OCCO1` (stereo not given): the TGI in the experiment with MDA-N is greater than 100 µM.
Same read-out and setting: with `Cc1cc(Cl)cc2c(N=Nc3ccccc3[N+](=O)[O-])c(O)[nH]c12` the figure was greater than 100 µM.
For the compound `CC[O-].CC[O-].O=C([CH-]C(=O)c1cccnc1)c1ccccc1.O=C([CH-]C(=O)c1cccnc1)c1ccccc1.[Ti+4]`, the GI50 was greater than 100 µM in the experiment on DMS 114 small cell lung; 68.6 µM in the experiment with DMS 273 small cell lung; 62 µM in the experiment on KM20L2 colon; 25.9 µM in the experiment with RXF-631 renal; greater than 100 µM with SNB-78 CNS; 32.8 µM with XF 498 CNS. The TGI in the experiment with DMS 114 small cell lung was greater than 100 µM; with DMS 273 small cell lung, greater than 100 µM; in the experiment on KM20L2 colon, greater than 100 µM; in the experiment with RXF-631 renal it was greater than 100 µM; in the experiment on SNB-78 CNS, greater than 100 µM; in the experiment on XF 498 CNS, 90.6 µM.
Regarding `O=C(Nc1ccccc1)c1nn(-c2cc(S(=O)(=O)O)c([N+](=O)[O-])cc2Cl)[n+](-c2cc(S(=O)(=O)[O-])c([N+](=O)[O-])cc2Cl)n1`, the TGI with MDA-N was greater than 100 µM.
On to `O=S(=O)(N/N=C/c1ccc(Cl)c(Cl)c1)c1ccccc1`, for which the TGI in the experiment with DLD-1 colon was greater than 100 µM; in the experiment on DMS 114 small cell lung, 87 µM; with DMS 273 small cell lung, greater than 100 µM; in the experiment with HOP-18 NSCLC, greater than 100 µM; with KM20L2 colon, greater than 100 µM; with SNB-78 CNS, greater than 100 µM. In addition, the TGI with XF 498 CNS is greater than 100 µM.
Take `CS(=O)(=O)OCC1OC(n2ccc(NC(=O)c3ccccc3)nc2=O)CC1OS(C)(=O)=O` (stereo not given): the TGI with MDA-N is greater than 100 µM.
Consider `C/C=C/C1=C(Cl)C(=O)[C@@H](Cl)[C@@]1(O)C(=O)OC`, for which the TGI with DLD-1 colon was 9.35 µM; with DMS 114 small cell lung, greater than 34.4 µM; in the experiment on DMS 273 small cell lung, 9.61 µM; with HOP-18 NSCLC it was 11 µM; in the experiment with KM20L2 colon it was 15.9 µM; in the experiment on RXF-631 renal it was 43.9 µM. For the same compound, the results for the TGI with SN12K1 renal, in the experiment with SNB-78 CNS and in the experiment on XF 498 CNS were 4.48 µM, 39.4 µM and 13.3 µM, respectively.
`CC1=C(/C=C/C(=O)O)C(C)(C)CCC1` showed a TGI in the experiment on MDA-N greater than 100 µM.
Consider `CN(C)CCN(C)CC1COC(C)(C)O1` (stereo not given), for which the TGI in the experiment on DLD-1 colon, in the experiment on DMS 273 small cell lung, in the experiment on HOP-18 NSCLC, in the experiment on KM20L2 colon, with SNB-78 CNS and with XF 498 CNS was greater than 100 µM each time.
For the compound `O=C1c2cccnc2C(=O)C2C3C=CC(C3)C12` (stereo not given), the TGI in the experiment on MDA-N was 13.2 µM.
